Data from article PMC10462762, “Chemoenzymatic synthesis of genetically-encoded multivalent liquid N-glycan arrays” (Nature Communications, 2023).

Biological target: T1, α-(2→6)-sialyltransferase from Photobacterium damselae (Pd26ST) (Photobacterium damselae, UniProt O66375)
T1 construct: gene bst; recombinant, expressed and purified as in supplementary information
T1 sequence (O66375 16-675): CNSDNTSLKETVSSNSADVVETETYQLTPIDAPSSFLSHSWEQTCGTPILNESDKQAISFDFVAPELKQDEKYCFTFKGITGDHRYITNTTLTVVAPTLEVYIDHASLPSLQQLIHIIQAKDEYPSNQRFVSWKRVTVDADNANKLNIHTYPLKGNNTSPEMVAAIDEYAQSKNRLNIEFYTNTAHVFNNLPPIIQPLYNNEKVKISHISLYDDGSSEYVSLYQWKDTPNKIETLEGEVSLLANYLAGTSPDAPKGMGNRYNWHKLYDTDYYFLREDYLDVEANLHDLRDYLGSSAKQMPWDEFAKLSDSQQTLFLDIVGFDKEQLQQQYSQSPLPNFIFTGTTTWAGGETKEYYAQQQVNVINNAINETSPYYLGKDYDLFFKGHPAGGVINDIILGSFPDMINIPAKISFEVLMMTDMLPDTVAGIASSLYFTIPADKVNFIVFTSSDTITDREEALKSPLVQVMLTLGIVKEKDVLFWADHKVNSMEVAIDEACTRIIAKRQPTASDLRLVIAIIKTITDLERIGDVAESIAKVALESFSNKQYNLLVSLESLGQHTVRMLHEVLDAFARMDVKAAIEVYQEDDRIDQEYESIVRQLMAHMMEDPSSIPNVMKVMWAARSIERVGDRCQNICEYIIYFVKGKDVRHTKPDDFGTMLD
Test: sialylation of phage-displayed LacNAc / Lac, MALDI-TOF MS
Format: biochemical
Conditions: donor substrate; acceptor LacNAc- and lactose-phage; 9 h

With `CC(=O)N[C@H]1[C@H]([C@H](O)[C@H](O)CO)O[C@](OP(=O)(O)OC[C@H]2O[C@@H](n3ccc(N)nc3=O)[C@H](O)[C@@H]2O)(C(=O)O)C[C@@H]1O` [CMP-Neu5Ac] the “sialylation of phage-displayed LacNAc / Lac, MALDI-TOF MS” value was “(Pd26ST) and cytidine-5’-monophosphate-N-acetylneuraminic acid (CMP-Neu5Ac)”.
